The test system of one data set is C. diphtheriae. The data set is described as follows: MIC, broth dilution method. It counts as cell-based. The note with it: for MIC: Corynebacterium diphtheriae, read-out: MIC Anti-Bacterial Activity. The method, then:
(§1) Antibacterial activity can be determined by several standard methods well known by those skilled in the art, including disc diffusions methods, broth dilution minimal inhibitory concentration (MIC) methods, etc., including the detailed method outlined below. Cultures of bacteria are initially brought up from the freezer by streaking a loopful onto agar plates under the appropriate conditions. For instance stocks are streaked onto chocolate agar and then incubated for 18 hours at 35-37° C. in a 5% CO2 incubator. Five to 10 colonies are picked from the chocolate agar plate for subculture to Brain-Heart Infusion (BHI) broth or Mueller Hinton broth or BHI containing 4% serum and incubated under the appropriate conditions. The ability of the test compound to act as an antimicrobial is determined by the ability to inhibit bacterial, algae, or fungal growth in vitro. The optical density of the culture of organisms in the presence of an active compound is compared to the optical density of the same organism untreated. The activity of the compounds is described as either negative or the lowest concentration inhibiting growth.
For orientation: In broth dilution the organism is exposed to a series of concentrations in liquid medium.

The next data set concerns S. pneumoniae. Kind of data set: MIC, broth dilution method. It counts as cell-based. As to conditions: for MIC: Streptococcus pneumoniae, read-out: MIC Anti-Bacterial Activity. Here is the method: as §1
Another data set deals with S. epidermidis. Kind of data set: MIC, broth dilution method. It counts as cell-based. As to conditions: for MIC: Staphylococcus epidermidis, read-out: MIC Anti-Bacterial Activity. Here is the method: as §1
In the next data set the test system is S. aureus. The data set is described as follows: MIC, broth dilution method. It counts as cell-based. As to conditions: for MIC: Staphylococcus aureus, read-out: Antibacterial Activity against S. aureus MIC. The method, then:
as §1

The subject of a further data set is E. faecalis. Kind of data set: MIC, broth dilution method. Format: cell-based. As to conditions: for MIC: Enterococcus faecalis, read-out: MIC Anti-Bacterial Activity. The method, then: as §1
A further data set concerns M. catarrhalis. The data set is described as follows: MIC, broth dilution method. Format: cell-based. The note with it: for MIC: Moraxella catarrhalis, read-out: MIC Anti-Bacterial Activity. Here is the method:
as §1

Another data set concerns H. influenzae. The data set is described as follows: MIC, broth dilution method. It counts as cell-based. The note with it: for MIC: Haemophilus influenzae, read-out: MIC Anti-Bacterial Activity. The method, then: as §1
The subject of a further data set is M. smegimatis. Kind of data set: MIC, broth dilution method. The note with it: for MIC: read-out: MIC Anti-Bacterial Activity. Format: cell-based. Here is the method:
as §1

For another data set, the system named is H. pylori. Kind of data set: MIC, broth dilution method. It counts as cell-based. The method, then: as §1
Another data set concerns S. pyogenes. The data set is described as follows: MIC, broth dilution method. The note with it: for MIC: Streptococcus pyogenes, read-out: MIC Anti-Bacterial Activity. Format: cell-based. Here is the method:
as §1

Data set [1] deals with methicillin-resistant Staphylococcus aureus. Kind of data set: Wound healing model (FIG. 2). It counts as in vivo. The note with it: mice, composition applied topically twice daily, sampled 72 hours post-infection. Here is the method: (§2) FIG. 2. Efficacy of a composition comprising the compound of Example 9 in the wound healing model. A defined inoculum of approximately 10^5 CFU of methicillin-resistant Staphylococcus aureus in 20 μl culture medium was pipetted into a wound approximately 1 cm^2 created by removal of the epidermis from the shaved backs of mice. After 24 hours, the composition comprising Example 9, placebo control or positive control ointment was applied twice daily. Approximately, seventy two hours post-infection, the wound was sampled and appropriate dilutions plated on nutritive agars for determination of microbial burden. The number of colony forming units (CFU) of methicillin-resistant Staphylococcus aureus per wound is shown.
(§3) The wound healing model, using methods generally known by those skilled in the art, is used to measure the efficacy of topically applied compounds in suitable vehicles against any bacteria, for example, Staphylococcus epidermis, Staphylococcus aureus, Streptococcus pyrogenes, Haemophilus influenzae, or mixtures thereof. By removing several epidermal layers by surgical procedure, a superficial wound of approximately 1 cm^2 was created. About 10^5cfu/20 ul of culture medium of any bacteria, for example, S aureus, was applied to the wound. […]

For data set [2], the system named is methicillin-sensitive Staphylococcus aureus. The data set is described as follows: Wound healing model (FIG. 1). The note with it: methicillin-susceptible Staphylococcus aureus; mice; composition applied topically twice daily; sampled 72 hours post-infection. It counts as in vivo. Here is the method: as §2, with “1.” for “2.”, “methicillin-sensitive” for “methicillin-resistant”
as §3

Data set [3] relates to Staphylococcus epidermidis. The data set is described as follows: Wound healing model (FIG. 3). It counts as in vivo. As to conditions: mice, composition applied topically twice daily, sampled 72 hours post-infection. Here is the method:
as §2, with “3.” for “2.”, “methicillin-sensitive” for “methicillin-resistant”, “epidermis” for “aureus”
as §3

What is called melting point is the temperature of the solid-liquid transition.

Converted amounts (≈) assume the structure as drawn.

For `CCCCC1CC(c2ccc(O)c(Cl)c2)(c2ccc(O)c(Cl)c2)C1` [Example 8, 1,1-Bis(4-hydroxy-3-chloro-phenyl)-3-n-butyl-yclobutane], the “MIC Anti-Bacterial Activity” value against C. diphtheriae stood at 1 µg/mL (≈ 2.74 µM); with S. pneumoniae, 3 µg/mL (≈ 8.21 µM); with S. epidermidis, 1 µg/mL (≈ 2.74 µM); against E. faecalis, 1 µg/mL (≈ 2.74 µM); against M. catarrhalis, 1 µg/mL (≈ 2.74 µM); in the data set on H. influenzae it was 3 µg/mL (≈ 8.21 µM). For the same molecule, the figures for the “MIC Anti-Bacterial Activity” value in the data set on M. smegimatis, against H. pylori and with S. pyogenes were 1 µg/mL (≈ 2.74 µM), 31 µg/mL (≈ 84.9 µM) and 13 µg/mL (≈ 35.6 µM), respectively. Also, the “Antibacterial Activity against S. aureus MIC” value in the data set on S. aureus (S. aureus) is 0.5 µg/mL.
`CCCCC1CC(c2ccc(O)c(C)c2)(c2ccc(O)c(C)c2)C1` [Example 2, 1,1-Bis(4-hydroxy-3-methylphenyl)-3-n-butyl-cyclobutane] yielded a melting point of 135 to 137 °C. Also, in the data set on C. diphtheriae, the MIC came to 1 µg/mL (≈ 3.08 µM). Besides, the MIC with S. pneumoniae was determined as 6 µg/mL (≈ 18.5 µM). In addition, the MIC in the data set with S. epidermidis was 1 µg/mL (≈ 3.08 µM). Besides, the MIC in the data set with S. aureus was 1 µg/mL (≈ 3.08 µM). Further, the MIC in the data set on E. faecalis was found to be 2 µg/mL (≈ 6.16 µM). Moreover, the MIC in the data set with M. catarrhalis was 1 µg/mL (≈ 3.08 µM). In the data set with H. influenzae, the MIC was found to be 1 µg/mL (≈ 3.08 µM). Moreover, in the data set on M. smegimatis, the MIC was 2 µg/mL (≈ 6.16 µM). Further, in the data set with H. pylori (Helicobacter pylori, read-out: MIC Anti-Bacterial Activity), the MIC is 16 µg/mL (≈ 49.3 µM). The MIC in the data set with S. pyogenes turned out to be 6 µg/mL (≈ 18.5 µM).
In turn, `CCCC1CC(c2ccc(O)c(C)c2)(c2ccc(O)c(C)c2)C1` [Example 1, 1,1-Bis(4-hydroxy-3-methylphenyl)-3-n-propyl-cyclobutane] yielded a melting point of 130 to 132 °C. For the same molecule, the MIC with C. diphtheriae was 2 µg/mL (≈ 6.44 µM). In addition, the MIC in the data set on S. pneumoniae was 6 µg/mL (≈ 19.3 µM). In the data set with S. epidermidis, the MIC stood at 2 µg/mL (≈ 6.44 µM). In addition, the MIC with S. aureus was found to be 1 µg/mL (≈ 3.22 µM). The MIC in the data set on E. faecalis is 3 µg/mL (≈ 9.66 µM). For the same molecule, in the data set on M. catarrhalis, the MIC worked out at 2 µg/mL (≈ 6.44 µM). Further, the MIC in the data set with H. influenzae was 1 µg/mL (≈ 3.22 µM). Further, in the data set with M. smegimatis, the MIC came out at 3 µg/mL (≈ 9.66 µM). For the same molecule, the MIC in the data set with S. pyogenes came to 6 µg/mL (≈ 19.3 µM).
In turn, `CCCC1CC(c2ccc(O)c(Cl)c2)(c2ccc(O)c(Cl)c2)C1` [Example 5, 1,1-Bis(4-hydroxy-3-chloro-phenyl)-3-n-propyl-cyclobutane] showed a melting point of 103 to 105 °C. The MIC in the data set with C. diphtheriae amounted to 1 µg/mL (≈ 2.85 µM). Moreover, the MIC in the data set on S. pneumoniae is 3 µg/mL (≈ 8.54 µM). Besides, the MIC in the data set with S. epidermidis came to 1 µg/mL (≈ 2.85 µM). The MIC with S. aureus was found to be 1 µg/mL (≈ 2.85 µM). Further, in the data set with E. faecalis, the MIC came out at 2 µg/mL (≈ 5.69 µM). Further, the MIC in the data set on M. catarrhalis was determined as 1 µg/mL (≈ 2.85 µM). Besides, the MIC in the data set with H. influenzae was determined as 3 µg/mL (≈ 8.54 µM). Also, the MIC in the data set with M. smegimatis is 1 µg/mL (≈ 2.85 µM). Also, the MIC in the data set on S. pyogenes worked out at 13 µg/mL (≈ 37 µM).
`CCCCCC(C)(c1ccc(O)c(C)c1)c1ccc(O)c(C)c1` [Example 9, 2,2-Bis(4-hydroxy-3-methylphenyl)heptane]: the “reducing the population levels of pathogenic bacteria in wound” value in data set [1], in data set [2] and in data set [3] was “efficacious” in each case. Also, the MIC with S. aureus stood at 1 µg/mL (≈ 3.2 µM); in the data set with M. smegimatis it was 2 µg/mL (≈ 6.4 µM).

The record behind these values is patent US20050148570A1, “Novel substituted alkane compounds and uses thereof” (priority 2001, published 2005).
